Assay results published in US11761966B2, “Nourin gene-based RNA molecular network: novel early diagnostic and prognostic biomarkers for coronary artery disease, unstable angina, STEMI/NSTEMI and heart failure” (Nour Heart, Inc., priority 2018, dated 2023).
Entries after “also recorded” stand apart in the source; their conditions may differ. Where no end group is shown, it is not given here. The star is where a group is joined. For = O=C*

Tests used:
Swine Flu H1N1 virus = conditions: mice inoculated with Swine Flu H1N1 virus; cited from earlier work
Nourin = conditions: in-vitro; cited from earlier work
miR-137 [1] = conditions: spontaneously hypertensive rats; cited from earlier work
rabbit skin = conditions: within the first 30 minutes, neutrophil infiltration; cited from earlier work
miR-137 [2] = assay: qPCR of Nourin RNA network in ISO rat model of HF: serum miR-137 gene expression; type: in vivo; conditions: for reduction of miR-137 gene expression: serum day 14, vs ISO/saline
Protocol: (§1) The standard quantitative real time PCR (qPCR) molecular assay described in Example 6 was used to determine the levels of Nourin RNA network in the ISO rat model of ischemia-induced HF. It was tested if the hypothesis that the levels of gene expression of Nourin molecular RNA Network (miR-137, miRNA-106b, mRNA FTHL-17, mRNA ANAPC11 and lncR-CTB89H12.4) will be elevated in HF rats, and that CCrP treatment will reduce their gene expression of Nourin molecular RNA Network in a dose-response manner.
(§2) After 14 days, gene expression of Nourin-dependent miR-137 and miR-106b and their signaling pathways mRNA-FTLH-17, mRNA-ANAPC11 and lncR-CTB89H12.4 were evaluated by qRT-PCR (Example 6).

mRNA-FTHL-17 = assay: qPCR of Nourin RNA network in ISO rat model of HF: serum mRNA-FTHL-17 gene expression; type: in vivo; conditions: for reduction of mRNA-FTHL-17 gene expression: serum day 14
Protocol: as §1, §2

lncR-CTB89H12.4 = assay: qPCR of Nourin RNA network in ISO rat model of HF: serum lncR-CTB89H12.4 gene expression; type: in vivo; conditions: for increase of lncR-CTB89H12.4 gene expression: serum day 14
Protocol: as §1, §2

miR-106b = assay: qPCR of Nourin RNA network in ISO rat model of HF: serum miR-106b gene expression; type: in vivo; conditions: for reduction of miR-106b gene expression: serum day 14
Protocol: as §1, §2

mRNA-ANAPC11 = assay: qPCR of Nourin RNA network in ISO rat model of HF: serum mRNA-ANAPC11 gene expression; type: in vivo; conditions: for reduction of mRNA-ANAPC11 gene expression: serum day 14
Protocol: as §1, §2

ISO rat model of HF = assay: Standard isoproterenol (ISO) rat model of heart failure: CK-MB, ejection fraction, collagen, fibrosis, heart weight, physical activity; type: in vivo; set-up: heart weight: unit not given here; conditions: for Ejection Fraction (EF %) by ECHO: after 14 days
hearts in cold storage = assay: Heart cold storage for 6 hours in HH solution (UW+CCrP) vs UW
Protocol: (§3) Furthermore, there was a higher weight gain in control hearts (UW) after 6 hours of cold storage compared to the CCrP-treated hearts (HH). […] The observed reduction of heart edema in the CCrP hearts (HH) is crucial for the restoration of contractile function during reperfusion at the end of 6-hour storage. […] Lewis rats were used for both the donors and recipients to avoid immunologic rejection. This approach allowed a focus at determining the in vivo cardioprotective benefits of CCrP treatment and to evaluate whether CCrP would restore cardiac contractility after prolonged cold storage and increase graft survival. Echocardiography (ECHO) analyses were conducted 2 hours after transplantation at day 0 and at day 3 before sacrifice.

rat grafted hearts = assay: In vivo rat syngeneic abdominal heterotopic heart transplantation after 22-24 hours cold storage; conditions: after 22 and 24 hours of cold storage; control poor
Protocol: as §3
Saline-treated control donor rats were evidently dilated with an increase in the sizes of both ventricles and atria. Additionally, the color was mildly cyanotic and the contractility was poor and irregular in rhythm. In most control grafted hearts, their heart beating score ranged from 1+ to 2+ at day 0 and day 3. Protection was shown in most of CCrP grafted hearts at day 3 where the myocardial color and the consistency of the degree of contractility were almost the same as day zero. […] Most the control grafted hearts, on the other hand, continued to show evidence of ischemia as well as loss of wall thickness and cardiac mass by day 0 and day 3 (FIG. 43).

[3] = Crossing of the blood-brain barrier
[4] = system: patients with ST-Segment Elevation Myocardial Infarction; conditions: EMBRACE STEMI trial; cited from earlier work
HF patients = conditions: small study, wide confidence intervals; cited from earlier work

Protocol for healthy rats: After 14 days, ECHO analysis for Ejection Fraction (EF %) was conducted, as well as heart weight (mg), histologic analysis for fibrosis and deposition of collagen. Mean±S.E.M and one-way ANOVA analysis were used.

C/C=C/C[C@@H](C)[C@@H](O)[C@H]1C(=O)N[C@@H](CC)C(=O)N(C)CC(=O)N(C)[C@@H](CC(C)C)C(=O)N[C@@H](C(C)C)C(=O)N(C)[C@@H](CC(C)C)C(=O)N[C@@H](C)C(=O)N[C@H](C)C(=O)N(C)[C@@H](CC(C)C)C(=O)N(C)[C@@H](CC(C)C)C(=O)N(C)[C@H](C(C)C)C(=O)N1C [Cyclosporin H]
lung inflammation (Swine Flu H1N1 virus): significantly reduced lung inflammation
Nourin activity (Nourin): inhibited Nourin activity

C[C@H](CS)C(=O)N1CCC[C@H]1C(=O)O [captopril]
miR-137 expression (miR-137 [1]): inhibit miR-137 expression

Nourin: 3 KDa N-formyl peptide released by ischemic heart, inflammatory mediator (SEQ ID NO:15) (For-MIINHNLAAINSHRSPGADGNGGEAMPGGGR; listed as Homo sapiens)
inflammatory response in skin (rabbit skin): acute inflammatory response

Cyclocreatine Phosphate [CCrP]
reduction of miR-137 gene expression (miR-137 [2]; ISO/CCrP 0.4 g/kg): 33%
reduction of miR-137 gene expression (miR-137 [2]; ISO/CCrP 0.8 g/kg): 75%
reduction of miR-137 gene expression (miR-137 [2]; ISO/CCrP 1.2 g/kg): 68%
miR-137 gene expression (Mean) (miR-137 [2]; healthy rats, CCrP 0.8 g/kg, saline-treated healthy rats 1.15): 1.60
reduction of mRNA-FTHL-17 gene expression (mRNA-FTHL-17; ISO/CCrP 0.4 g/kg): 16%
reduction of mRNA-FTHL-17 gene expression (mRNA-FTHL-17; ISO/CCrP 0.8 g/kg): 30%
reduction of mRNA-FTHL-17 gene expression (mRNA-FTHL-17; ISO/CCrP 1.2 g/kg): 75%
mRNA-FTHL-17 gene expression (Mean) (mRNA-FTHL-17; healthy rats, CCrP 0.8 g/kg, saline-treated healthy rats 1.01): 0.67
increase of lncR-CTB89H12.4 gene expression (lncR-CTB89H12.4; ISO/CCrP 0.4 g/kg): 1.33 fold
increase of lncR-CTB89H12.4 gene expression (lncR-CTB89H12.4; ISO/CCrP 0.8 g/kg): 7.66 fold
increase of lncR-CTB89H12.4 gene expression (lncR-CTB89H12.4; ISO/CCrP 1.2 g/kg): 14.33 fold
lncR-CTB89H12.4 gene expression (Mean) (lncR-CTB89H12.4; healthy rats, CCrP 0.8 g/kg, saline-treated healthy rats 1.1): 1.3
reduction of miR-106b gene expression (miR-106b; ISO/CCrP 0.4 g/kg): 18%
reduction of miR-106b gene expression (miR-106b; ISO/CCrP 0.8 g/kg): 44%
reduction of miR-106b gene expression (miR-106b; ISO/CCrP 1.2 g/kg): 72%
miR-106b gene expression (Mean) (miR-106b; healthy rats, CCrP 0.8 g/kg, saline-treated healthy rats 4.62): 5.62
reduction of mRNA-ANAPC11 gene expression (mRNA-ANAPC11; ISO/CCrP 0.4 g/kg): 18%
reduction of mRNA-ANAPC11 gene expression (mRNA-ANAPC11; ISO/CCrP 0.8 g/kg): 31%
reduction of mRNA-ANAPC11 gene expression (mRNA-ANAPC11; ISO/CCrP 1.2 g/kg): 70%
mRNA-ANAPC11 gene expression (Mean) (mRNA-ANAPC11; healthy rats, CCrP 0.8 g/kg, saline-treated healthy rats 1.0): 0.9
Ejection Fraction (EF %) by ECHO (ISO rat model of HF; ISO/CCrP 0.4 g/kg): 54%
collagen % (ISO rat model of HF; ISO/CCrP 0.4 g/kg, day 14): 3.3%
heart weight (ISO rat model of HF; ISO/CCrP 0.4 g/kg, day 14, ISO 0.8 mg, normal saline 0.6 mg): 0.7
Serum CK-MB (ISO rat model of HF; ISO/CCrP 0.8 g/kg, 24 hours after last ISO injection, ISO 206.20±6.25, control saline 82.60±5.2): 70.67±5.79 U/L
heart weight (ISO rat model of HF; ISO/CCrP 0.8 g/kg, day 14): 0.6
Ejection Fraction (EF %) by ECHO (ISO rat model of HF; ISO/CCrP 0.8 g/kg/day, ISO 36, control saline 64): 64%
myocardial fibrosis (Masson's trichrome) (ISO rat model of HF; ISO/CCrP 0.8 g/kg/day, day 14): very low fibrosis; also recorded: delicate fibrous tissue between the myocardial bundles, almost similar to healthy normal rats
collagen % (ISO rat model of HF; ISO/CCrP 0.8 g/kg/day, day 14, ISO/saline 4.1): 0.7%
Ejection Fraction (EF %) by ECHO (ISO rat model of HF; ISO/CCrP 1.2 g/kg): 59%
collagen % (ISO rat model of HF; ISO/CCrP 1.2 g/kg, day 14): 0.2%
heart weight (ISO rat model of HF; ISO/CCrP 1.2 g/kg, day 14): 0.7
physical activity (ISO rat model of HF; ISO/CCrP group (n=5), day 14 before sacrifice): high physical activity
heart weight after cold storage (hearts in cold storage; 6 hours cold storage, HH solution (UW+CCrP), control (UW) 0.31 gm): 0.25 gm
recovery of contractile function (hearts in cold storage; CCrP treated-group (HH) vs saline control): significantly better
general overall survival of the cardiac tissue of grafted hearts (rat grafted hearts): very good to excellent
crossing of the blood-brain barrier [3]: crosses blood brain barrier
myocardial fibrosis (Masson's trichrome) (healthy rats; control healthy rats, CCrP 0.8 g/kg/day, day 14): no fibrosis
toxicity in heart, liver and renal function (healthy rats; healthy rats, CCrP 0.8 g/kg daily for 14 days): no toxicity; also recorded: no observed toxic effect
levels of liver enzyme ALT, kidney Creatinine and Urea, CCrP vs saline (healthy rats; normal rats, CCrP 0.8 g/kg IP daily for 14 days): no significant difference; also recorded: no significance difference
heart weight (healthy rats; normal rats, CCrP 0.8 g/kg daily for 14 days): 0.6
collagen % (healthy rats; normal rats, CCrP 0.8 g/kg daily for 14 days, control saline 0.1): 0.1%
Ejection Fraction (EF %) by ECHO (healthy rats; normal rats, CCrP 0.8 g/kg daily for 14 days, control saline 64): 61%

elamipretide
primary or secondary outcomes [4]: did not improve the primary or secondary outcomes
left ventricular volumes (HF patients): reduce left ventricular volumes
